Here are results for 30 compounds from patent US8680108B2, “Substituted fused aryl and heteroaryl derivatives as PI3K inhibitors” (Incyte Corporation, priority 2009, dated 2014).

What is called IC50 is the concentration needed to halve the response being measured. Read a low IC50 as greater potency in that assay.

Counter-ions that a name gives are not always drawn.

One assay deals with T1, PI3Kδ (p110δ/p85α) (Homo sapiens, UniProt O00329).
T1 construct: purchased Millipore (Bedford, Mass.)
T1 sequence (O00329 whole entry): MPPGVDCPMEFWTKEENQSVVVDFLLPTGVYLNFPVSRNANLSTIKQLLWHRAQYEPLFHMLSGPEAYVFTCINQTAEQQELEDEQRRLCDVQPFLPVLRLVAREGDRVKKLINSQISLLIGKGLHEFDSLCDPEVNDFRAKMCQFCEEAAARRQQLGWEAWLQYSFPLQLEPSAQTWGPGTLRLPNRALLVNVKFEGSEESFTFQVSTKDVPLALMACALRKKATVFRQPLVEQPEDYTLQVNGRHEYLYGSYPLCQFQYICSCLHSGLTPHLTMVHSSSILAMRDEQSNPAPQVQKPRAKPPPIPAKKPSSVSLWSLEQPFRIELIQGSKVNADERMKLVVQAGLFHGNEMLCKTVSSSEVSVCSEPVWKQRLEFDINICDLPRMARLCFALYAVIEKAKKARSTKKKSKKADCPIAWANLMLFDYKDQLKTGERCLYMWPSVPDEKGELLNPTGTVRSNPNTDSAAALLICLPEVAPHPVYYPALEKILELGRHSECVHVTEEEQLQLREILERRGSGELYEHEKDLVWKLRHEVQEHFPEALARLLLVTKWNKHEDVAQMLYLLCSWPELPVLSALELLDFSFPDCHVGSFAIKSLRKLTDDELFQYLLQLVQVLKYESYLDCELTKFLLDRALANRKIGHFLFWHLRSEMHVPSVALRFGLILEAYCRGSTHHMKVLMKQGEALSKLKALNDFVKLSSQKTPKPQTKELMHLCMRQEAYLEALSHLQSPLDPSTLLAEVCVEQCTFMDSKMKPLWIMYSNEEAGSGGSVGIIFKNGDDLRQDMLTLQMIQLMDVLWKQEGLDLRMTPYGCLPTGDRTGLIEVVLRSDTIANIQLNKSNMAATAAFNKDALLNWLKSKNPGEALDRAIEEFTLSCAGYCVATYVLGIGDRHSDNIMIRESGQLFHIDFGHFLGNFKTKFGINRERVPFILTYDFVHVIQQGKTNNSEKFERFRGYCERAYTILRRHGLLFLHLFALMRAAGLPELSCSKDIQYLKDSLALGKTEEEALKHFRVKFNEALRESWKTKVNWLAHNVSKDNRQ
T1 sequence (P27986 whole entry partner): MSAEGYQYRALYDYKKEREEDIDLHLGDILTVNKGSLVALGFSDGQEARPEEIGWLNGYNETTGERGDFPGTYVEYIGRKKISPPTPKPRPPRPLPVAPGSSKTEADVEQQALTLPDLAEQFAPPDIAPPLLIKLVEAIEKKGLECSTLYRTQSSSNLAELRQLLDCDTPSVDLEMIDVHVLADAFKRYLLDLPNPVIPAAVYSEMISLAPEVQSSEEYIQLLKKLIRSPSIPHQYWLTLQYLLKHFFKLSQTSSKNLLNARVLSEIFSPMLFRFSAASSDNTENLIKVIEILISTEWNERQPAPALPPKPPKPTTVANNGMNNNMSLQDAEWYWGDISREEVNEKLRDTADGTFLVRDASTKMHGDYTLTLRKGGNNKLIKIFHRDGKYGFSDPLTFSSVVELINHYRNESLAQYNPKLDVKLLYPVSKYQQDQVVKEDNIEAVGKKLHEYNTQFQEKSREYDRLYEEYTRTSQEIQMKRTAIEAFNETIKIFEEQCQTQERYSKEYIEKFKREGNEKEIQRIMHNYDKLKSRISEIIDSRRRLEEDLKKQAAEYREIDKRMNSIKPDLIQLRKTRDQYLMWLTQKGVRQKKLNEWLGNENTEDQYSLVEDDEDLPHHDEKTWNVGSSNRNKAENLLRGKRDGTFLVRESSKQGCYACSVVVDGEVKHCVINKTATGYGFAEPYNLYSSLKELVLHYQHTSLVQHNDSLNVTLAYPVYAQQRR
The experiment in a line: PI3Kδ scintillation proximity assay.
Details: not given
Format: biochemical. An excerpt:
Materials: [γ-^33P]ATP (10 mCi/mL) was purchased from Perkin-Elmer (Waltham, Mass.). Lipid kinase substrate, D-myo-Phosphatidylinositol 4,5-bisphosphate (PtdIns(4,5)P2)D (+)-sn-1,2-di-O-octanoylglyceryl, 3-O-phospho linked (PIP2), CAS 204858-53-7, was purchased from Echelon Biosciences (Salt Lake City, Utah). PI3Kδ (p110δ/p85α) was purchased from Millipore (Bedford, Mass.). ATP, MgCl2, DTT, EDTA, MOPS and CHAPS were purchased from Sigma-Aldrich (St. Louis, Mo.). Wheat Germ Agglutinin (WGA) YSi SPA Scintillation Beads was purchased from GE healthcare life sciences (Piscataway, N.J.).
Assay: The kinase reaction was conducted in polystyrene 384-well matrix white plate from Thermo Fisher Scientific in a final volume of 25 μL. Inhibitors were first diluted serially in DMSO and added to the plate wells before the addition of other reaction components. The final concentration of DMSO in the assay was 0.5%. The PI3K assays were carried out at room temperature in 20 mM MOPS, pH 6.7, 10 mM MgCl2, 5 mM DTT and CHAPS 0.03%. Reactions were initiated by the addition of ATP, the final reaction mixture consisted of 20 μM PIP2, 20 μM ATP, 0.2 μCi [γ-^33P] ATP, 4 nM PI3Kδ. Reactions were incubated for 210 minutes and terminated by the addition of 40 μL SPA beads suspended in quench buffer: 150 mM potassium phosphate pH 8.0, 20% glycerol. 25 mM EDTA, 400 μM ATP. The final concentration of SPA beads is 1.0 mg/mL. After the plate sealing, plates were shaken overnight at room temperature and centrifuged at 1800 rpm for 10 minutes, the radioactivity of the product was determined by scintillation counting on Topcount (Perkin-Elmer). IC50 determination was performed by fitting the curve of percent control activity versus the log of the inhibitor concentration using the GraphPad Prism® 3.0 software.
For `COC[C@H]1CCCN1c1c(C(C)Nc2ncnc3[nH]cnc23)cc(Cl)c2cccnc12` (mixture of isomers) [Example 14, N-(1-{5-chloro-8-[(2R)-2-(methoxymethyl)pyrrolidin-1-yl]quinolin-7-yl}ethyl)-9H-purin-6-amine bis-trifluoroacetate], the IC50 fell in the range of 100 to 250 nM. Still for that read-out and setting: next, `CC(Nc1ncnc2[nH]cnc12)c1cc(Cl)c2cccnc2c1N1CC[C@H](F)C1` (mixture of isomers) [Example 57, N-(1-{5-Chloro-8-[(3S)-3-fluoropyrrolidin-1-yl]quinolin-7-yl}ethyl)-9H-purin-6-amine bis(trifluoroacetate)]: 250 to 500 nM; `CC(Nc1ncnc2[nH]cnc12)c1cc(Cl)c2cccnc2c1N1CCC(C#N)C1` (mixture of isomers) [Example 60, 1-{5-Chloro-7-[1-(9H-purin-6-ylamino)ethyl]quinolin-8-yl}pyrrolidine-3-carbonitrile bis(trifluoroacetate)]: 100 to 250 nM; `CC(Nc1ncnc2[nH]cnc12)c1cc(F)c2ccnnc2c1-c1cccc(F)c1` (single isomer, unassigned) [Example 20, N-{1-[5-Fluoro-8-(3-fluorophenyl)cinnolin-7-yl]ethyl}-9H-purin-6-amine]: less than 50 nM. On the same count and under the same terms, as for `CC(Nc1ncnc2[nH]cnc12)c1cc(F)c2ccnnc2c1-c1cccc(F)c1` (single isomer, unassigned) [Example 21, N-{1-[5-Fluoro-8-(3-fluorophenyl)cinnolin-7-yl]ethyl}-9H-purin-6-amine], the figure is more than 1000 nM.

On to `CC(Nc1nc(N)nc2[nH]cnc12)c1cc(F)c2ccnnc2c1-c1cccc(F)c1` (single isomer, unassigned) [Example 22, N(6)-{1-[5-Fluoro-8-(3-fluorophenyl)cinnolin-7-yl]ethyl}-9H-purine-2,6-diamine], for which the half-maximal inhibitory concentration (IC50) is less than 50 nM.

Take `CC(Nc1ncnc2[nH]cnc12)c1cc(Cl)c2ccnnc2c1-c1cc(F)cc(F)c1` (single isomer, unassigned) [Example 23, N-{1-[5-Chloro-8-(3,5-difluorophenyl)cinnolin-7-yl]ethyl}-9H-purin-6-amine]: the IC50 is less than 50 nM. The same measure, in the same setting: next, `CC(Nc1ncnc2[nH]cnc12)c1cc(Cl)c2ccnnc2c1-c1cc(F)cc(F)c1` (single isomer, unassigned) [Example 24, N-{1-[5-Chloro-8-(3,5-difluorophenyl)cinnolin-7-yl]ethyl}-9H-purin-6-amine]: more than 1000 nM; `CC(Nc1ncnc2[nH]cnc12)c1cc(Cl)c2ccnnc2c1-c1ccccc1F` (single isomer, unassigned) [Example 25, N-{1-[5-Chloro-8-(2-fluorophenyl)cinnolin-7-yl]ethyl}-9H-purin-6-amine]: more than 1000 nM; `CC(Nc1ncnc2[nH]cnc12)c1cc(Cl)c2ccnnc2c1-c1ccccc1F` (single isomer, unassigned) [Example 26, N-{1-[5-Chloro-8-(2-fluorophenyl)cinnolin-7-yl]ethyl}-9H-purin-6-amine]: 250 to 500 nM.

`CC(Nc1ncnc2[nH]cnc12)c1cc(Cl)c2ccnnc2c1-c1ccccc1F` (single isomer, unassigned) [Example 27, N-{1-[5-Chloro-8-(2-fluorophenyl)cinnolin-7-yl]ethyl}-9H-purin-6-amine] showed an IC50 of 50 to 100 nM.

For `CC(Nc1ncnc2[nH]cnc12)c1cc(Cl)c2ccnnc2c1-c1ccccc1F` (single isomer, unassigned) [Example 28, N-{1-[5-Chloro-8-(2-fluorophenyl)cinnolin-7-yl]ethyl}-9H-purin-6-amine], the IC50 was less than 50 nM.

Turning to `CC(Nc1ncnc2[nH]cnc12)c1cc(F)c2ccnnc2c1-c1cc(F)cc(F)c1` (single isomer, unassigned) [Example 29, N-{1-[8-(3,5-difluorophenyl)-5-fluorocinnolin-7-yl]ethyl}-9H-purin-6-amine trifluoroacetate], the IC50 was in the range of 100 to 250 nM. Still for that read-out and setting: next, `CC(Nc1ncnc2[nH]cnc12)c1cc(F)c2ccnnc2c1-c1cc(F)cc(F)c1` (single isomer, unassigned) [Example 30, N-{1-[8-(3,5-difluorophenyl)-5-fluorocinnolin-7-yl]ethyl}-9H-purin-6-amine trifluoroacetate]: more than 1000 nM; `CCC(Nc1ncnc2[nH]cnc12)c1cc(Cl)c2ccnnc2c1-c1cccc(F)c1` (single isomer, unassigned) [Example 32, N-{1-[5-chloro-8-(3-fluorophenyl)cinnolin-7-yl]propyl}-9H-purin-6-amine]: more than 1000 nM; `CCC(Nc1ncnc2[nH]cnc12)c1cc(Cl)c2ccnnc2c1-c1cccc(F)c1` (single isomer, unassigned) [Example 33, N-{1-[5-chloro-8-(3-fluorophenyl)cinnolin-7-yl]propyl}-9H-purin-6-amine]: less than 50 nM.

For the compound `CC(Nc1ncnc2[nH]cnc12)c1cc(Cl)c2ccnnc2c1-c1cncc(F)c1` (single isomer, unassigned) [Example 34, N-{1-[5-chloro-8-(5-fluoropyridin-3-yl)cinnolin-7-yl]ethyl}-9H-purin-6-amine trifluoroacetate], the 50% inhibitory concentration (IC50) lay in the range of 50 to 100 nM. The same measure, in the same setting: as for `CC(Nc1ncnc2[nH]cnc12)c1cc(Cl)c2ccnnc2c1-c1cncc(F)c1` (single isomer, unassigned) [Example 35, N-{1-[5-chloro-8-(5-fluoropyridin-3-yl)cinnolin-7-yl]ethyl}-9H-purin-6-amine trifluoroacetate], the figure is more than 1000 nM; as for `Cc1cc(C(C)Nc2ncnc3[nH]cnc23)c(-c2cc(F)cc(F)c2)c2nnccc12` (single isomer, unassigned) [Example 38, N-{1-[8-(3,5-difluorophenyl)-5-methylcinnolin-7-yl]ethyl}-9H-purin-6-amine], less than 50 nM; as for `Cc1cc(C(C)Nc2ncnc3[nH]cnc23)c(-c2cc(F)cc(F)c2)c2nnccc12` (single isomer, unassigned) [Example 39, N-{1-[8-(3,5-difluorophenyl)-5-methylcinnolin-7-yl]ethyl}-9H-purin-6-amine], more than 1000 nM. The compound `CC(Nc1ncnc2[nH]cnc12)c1ccc2ccccc2c1-c1cccc(F)c1` (stereo not drawn) [Example 1, N-{1-[1-(3-fluorophenyl)-2-naphthyl]ethyl}-9H-purin-6-amine trifluoroacetate] yielded an IC50 of 100 to 250 nM.

Consider `Cc1nc2c(-c3cccc(F)c3)c(C(C)Nc3ncnc4[nH]cnc34)ccc2s1` (stereo not drawn) [Example 2, N-{1-[4-(3-fluorophenyl)-2-methyl-1,3-benzothiazol-5-yl]ethyl}-9H-purin-6-amine trifluoroacetate], for which the IC50 was more than 1000 nM.

In turn, `CC(Nc1nc(N)nc2[nH]cnc12)c1ccc2ccccc2c1-c1cncc(F)c1` (stereo not drawn) [Example 3, N(6)-{1-[1-(5-fluoropyridin-3-yl)-2-naphthyl]ethyl}-9H-purine-2,6-diamine bis-trifluoroacetate] returned an IC50 of less than 50 nM.

Compound `CC(Nc1ncnc2[nH]cnc12)c1ccc2ccccc2c1-c1cncc(F)c1` (stereo not drawn) [Example 5, N-{1-[1-(5-fluoropyridin-3-yl)-2-napthyl]ethyl}-9H-purin-6-amine bis-trifluoroacetate] had an IC50 of less than 50 nM. The same measure, in the same setting: next, `CC(Nc1ncnc2[nH]cnc12)c1ccc2cccnc2c1-c1cc(F)cc(F)c1` (stereo not drawn) [Example 6, N-{1-[8-(3,5-difluorophenyl)quinolin-7-yl]ethyl}-9H-purin-6-amine bis-trifluoroacetate]: 500 to 1000 nM; `CC(Nc1ncnc2[nH]cnc12)c1ccc2cccnc2c1-c1cccc(F)c1` (stereo not drawn) [Example 8, N-{1-[8-(3-fluorophenyl)quinolin-7-yl]ethyl}-9H-purin-6-amine bis-trifluoroacetate]: 250 to 500 nM. Still for that read-out and setting: next, `CC(Nc1ncnc2[nH]cnc12)c1ccc2cccnc2c1-c1cncc(F)c1` (stereo not drawn) [Example 9, N-{1-[8-(5-fluoropyridin-3-yl)quinolin-7-yl]ethyl}-9H-purin-6-amine tris-trifluoroacetate]: 500 to 1000 nM.

The assay is the same for the next values; noted with them: separated isomer, 1st peak.
Take `CC(Nc1nc(N)nc2[nH]cnc12)c1ccc2ccccc2c1-c1cccc(F)c1` (stereo not drawn) [Example 4, N(6)-{1-[1-(3-fluorophenyl)-2-napthyl]ethyl}-9H-purine-2,6-diamine]: the IC50 lay within 500 to 1000 nM. With `CC(Nc1ncnc2[nH]cnc12)c1ccc2cccnc2c1-c1ccccc1F` (stereo not drawn) [Example 7, N-{1-[8-(2-fluorophenyl)quinolin-7-yl]ethyl}-9H-purin-6-amine bis-trifluoroacetate], the IC50 was more than 1000 nM. Still for that read-out and setting: as for `CC(Nc1ncnc2[nH]cnc12)c1cc(Cl)c2cccnc2c1-c1ccccc1F` (stereo not drawn) [Example 10, N-{1-[5-chloro-8-(2-fluorophenyl)quinolin-7-yl]ethyl}-9H-purin-6-amine bis-trifluoroacetate], the figure is 100 to 250 nM.

The assay is the same for the next values; noted with them: separated isomer, 2nd peak.
`CC(Nc1nc(N)nc2[nH]cnc12)c1ccc2ccccc2c1-c1cccc(F)c1` (stereo not drawn) [Example 4, N(6)-{1-[1-(3-fluorophenyl)-2-napthyl]ethyl}-9H-purine-2,6-diamine]: the IC50 fell in the range of 500 to 1000 nM. Still for that read-out and setting: next, `CC(Nc1ncnc2[nH]cnc12)c1ccc2cccnc2c1-c1ccccc1F` (stereo not drawn) [Example 7, N-{1-[8-(2-fluorophenyl)quinolin-7-yl]ethyl}-9H-purin-6-amine bis-trifluoroacetate]: 500 to 1000 nM; `CC(Nc1ncnc2[nH]cnc12)c1cc(Cl)c2cccnc2c1-c1ccccc1F` (stereo not drawn) [Example 10, N-{1-[5-chloro-8-(2-fluorophenyl)quinolin-7-yl]ethyl}-9H-purin-6-amine bis-trifluoroacetate]: less than 50 nM.
